From patent US20060020042A1, “Memantine for the treatment of mild and mild to moderate Alzheimer's disease” (Forest Laboratories, Inc., priority 2004, published 2006)

Assays:
[1] = system: mild-to-moderate AD subjects; experiment: Snodgrass picture naming activation task during PET; format: in vivo, human
Method: Snodgrass Picture Naming Task. […] In the present invention, all patients who were subjected to PET scanning were evaluated during imaging using the Snodgrass picture naming activation task, The use of a task during the FDG uptake was used to image increases in the hippocampus and temporal lobe. This Snodgrass Picture Naming activation task was sensitive to object naming, which is impaired in mild to moderate AD. The Snodgrass picture naming activation task and performance analysis was based, in part, on the speed of identification and articulation of the name that corresponds to a set of 260 pictures (Snodgrass and Vanderwart, J. Experimental Psychology: Human Learning and Memory 1980; 6(2): 174-215). The pictures are black-and-white line drawings executed according to a set of rules that provide consistency of pictorial representation. The pictures were standardized on four variables of central relevance to memory and cognitive processing: […]

[2] = system: brain glucose metabolism in mild-to-moderate AD subjects; experiment: FDG PET regional brain glucose metabolism; format: in vivo, human; conditions: 24 weeks of 20 mg/day
Method: Drug treatment. As stated above, patients were randomized to receive 20 mg/day (10 b.i.d.) memantine or placebo for 24 weeks. PET scans were performed for 10 (5 receiving memantine and 5 receiving placebo) patients at baseline and at the end of week 24.
PET Scan Acquisition. Subjects were PET scanned at the University of California, Irvine Brain Imaging Center using a GE 2048-15B dedicated head scanner. Thirty slices at 6.5-mm intervals (15 in each of two sets) were obtained so as to cover the entire brain. Attenuation correction was performed by obtaining a transmission scan using a ^68Ge pin source. A thermosetting plastic facemask was used to hold the subject stationary during the 60 minutes of total image acquisition. Scans were reconstructed with a blank and a transmission scan. PET image count was used for study analyses and adjusted for intrasubject global differences using normalization (proportional scaling).
PET Image Methodology and Analysis. Differences in regional FDG uptake were analyzed using SPM99 software (Wellcome Department of Cognitive Neurology, London, UK), implemented on the Matlab platform (MathWorks Inc., Sherborn, Mass.). Statistical parametric maps (SPMs) are spatially extended statistical processes that are constructed to test hypotheses about regionally specific effects in neuroimaging data. […]

CC12CC3CC(C)(C1)CC(N)(C3)C2 [Memantine, 1-amino-3,5-dimethyladamantane]
difference in Snodgrass performance between the two treatment groups ([1]; memantine vs placebo): no significant difference
Snodgrass picture naming activation task performance ([1]; memantine-treated subjects during PET): better than chance
regional brain glucose metabolic activity (FDG PET) compared to baseline ([2]; 5 patients, CNS incl. cerebral cortex, cerebellum, brainstem, p<0.025): metabolic increases
regional brain glucose metabolism (FDG PET) compared to baseline ([2]; isolated region of left visual cortex and left putamen): decreases in glucose metabolism
